From PMC6934550 (Scientific Reports, 2019)
Where “and” joins values, the source holds several entries; their conditions need not be identical. Equal entries are not always repeated. Entries after “also recorded” stand apart in the source; their conditions may differ. Structures can show the parent of a compound that is named as a salt. Where two headings read alike, the source gives them in different places.

What was measured:
[1] = test system: monocyte-derived macrophages (MDMs)
EBOV = settings: cited from earlier work
EBOV/Mak = test system: EBOV/Mak; set-up: species or system Rhesus macaques; settings: rhesus monkey, in vivo
[2] = rhesus monkey, in vivo
in vitro [3] = settings: African green monkey
[4] = test system: EBOV (Makona variant, EBOV/Mak); assay type: cell-based, Ebola virus
[5] = rhesus monkey, in vivo; remark: listed apart in the source
[6] = rhesus monkey, in vivo; remark: listed apart in the source
in vivo = settings: both, rhesus monkey, po; for AUC(0-t): AUClast
[7] = human, in vivo, 10 mg/kg; cited from earlier work
in vitro [8] = settings: human
in vitro [9] = settings: human; remark: listed apart in the source
[10] = read-out: IC50 range over cell types
[11] = 40 mg/kg, elimination phase half-life (t1/2), range among individual animals

## CCN(CC)Cc1cc(Nc2ccnc3cc(Cl)ccc23)ccc1O [Amodiaquine dihydrochloride hydrate, amodiaquine dihydrochloride dihydrate]
[1]
  cytotoxicity: elevated cytotoxicity
EBOV
  in vitro EBOV inhibition: potent EBOV inhibitor
  in vitro antiviral activity against EBOV: known to have in vitro antiviral activity against EBOV
EBOV/Mak
  RNA levels at necropsy: 10^9–10^11 viral RNA copies/ml
  clinical signs, febrile illness, weight loss versus control: Clinical signs did not differ significantly between the groups
  hematology and serum chemistry versus control: followed the same trends as the control animal values
  plasma viral load (RT-qPCR, plaque assay), words: did not reduce plasma viral RNA copies or infectious virus titer
  survival / efficacy: All animals were euthanized or succumbed to disease by day 8 postexposure; also recorded: did not result in a survival benefit or decrease of disease signs; also recorded: did not result in a survival benefit or decrease of disease symptoms; also recorded: did not have a beneficial effect on survival or the symptoms of EVD
EBOV/Mak; po, 20 mg/kg
  Median time to disposition: 7 days and 6 days
[2]
  ALT and AST elevation: 2.6- to 6.3 fold
  blood pressure: lower blood pressure readings than at predose
  clinical observations: hypoactivity, shivering (muscle tremors) and/or diarrhea
  tolerability: well-tolerated
In vitro [3]
  CC50: 40.1 µM
[4]
  Max effect: 100% at 30 and 100% at 40
[4]; [10]
  IC50: 3.2 to 27.9 µM
[5]
  plasma levels of AQ: negligible levels of AQ in all but five plasma samples
[6]; both, po, 20 mg/kg
  Tmax, mean: 3 h
[6]; 20 mg/kg
  Cmax (range): 7.8‒31.9
In vivo; 20 mg/kg, mean
  AUC(0-t): 74 ng·h/mL
  Cmax: 17.1 ng/mL
In vivo; 20 mg/kg, Tmax, mean
  Tmax: 5 h
In vivo; 40 mg/kg, AUCinf, mean
  AUC(0-inf): 324 ng·h/mL
In vivo; 40 mg/kg, mean
  AUC(0-t): 258 ng·h/mL
  Cmax: 53.7 ng/mL
In vivo; 40 mg/kg, Tmax (range)
  Tmax: 0.5 to 8 h
In vivo; 40 mg/kg, Tmax, mean
  Tmax: 5 h
In vivo; [11]
  half-life: 3 to 28 h
[7]
  Cmax: 29.2 ± 10.9 ng/mL

## C[C@H]1[C@H](OC(=O)CCC(=O)O)O[C@@H]2O[C@@]3(C)CC[C@H]4[C@H](C)CC[C@@H]1[C@@]24OO3 [Artesunate, artesunate]
EBOV
  activity against EBOV: no activity against EBOV has been demonstrated
In vitro [8]
  CC50: > 40 µM
In vitro [3]
  CC50: > 40 µM
[4]
  in vitro antiviral activity against EBOV: weak or undetectable; also recorded: minimal to no in vitro antiviral activity
[4]; read-out: IC50
  IC50: 17.2 ± 1.2 µM
In vitro [9]
  CC50: > 40 µM

## C[C@H]1[C@@H](O)O[C@@H]2O[C@@]3(C)CC[C@H]4[C@H](C)CC[C@@H]1[C@@]24OO3 [Dihydroartimesinin, dihydroartemisinin]
In vitro [3]
  CC50: > 40 µM
[4]
  Max effect: 64% at 40 and 49% at 40
  in vitro antiviral activity against EBOV: weak or undetectable; also recorded: minimal to no in vitro antiviral activity
[4]; read-out: IC50
  IC50: 31.5 µM and 35.2 µM
In vitro [9]
  CC50: > 40 µM

## CCNCc1cc(Nc2ccnc3cc(Cl)ccc23)ccc1O [N-Desethylamodiaquine hydrochloride, N-desethylamodiaquine hydrochloride]
[1]
  cytotoxicity: elevated cytotoxicity
EBOV
  in vitro antiviral activity against EBOV: known to have in vitro antiviral activity against EBOV
In vitro [3]
  CC50: 33.1 µM
[4]
  Max effect: 100% at 40 and 80% at 40
[4]; [10]
  IC50: 2.8 to 30 µM
[5]; Chinese origin
  plasma levels of DEAQ: detectable in all treated animals from both groups 2 and 3
[6]; both, po
  AUClast and AUCinf, fold higher for DEAQ than for AQ: 2.5- to 3 fold
[6]; both, po, 20 mg/kg
  t1/2: 15 h
[6]; 20 mg/kg
  Cmax (range): 203‒369
In vivo; 20 mg/kg, mean
  Cmax: 287 ng/mL
In vivo; 20 mg/kg, t1/2, mean
  half-life: 15.6 h
In vivo; 40 mg/kg, mean
  Cmax: 618 ng/mL
In vivo; 40 mg/kg, Tmax (range)
  Tmax: 0.5 to 8 h
In vivo; 40 mg/kg, Tmax, mean
  Tmax: 5 h
In vivo; [11]
  half-life: 12 to 51 h
[7]
  Cmax: 268.7 ± 70.8 ng/mL
